From patent publication US9855345B2, “Method for producing lipoplex for topical administration and antitumor agent using such lipoplex” (DELTA-FLY PHARMA, INC., priority 2014, dated 2018)
“Also recorded” adds a separate entry of the source.

How the values were obtained:
[1] = tested on: Luciferase-expressing human pancreatic cancer cells PANC-1; assay: Therapeutic effect on peritoneal dissemination of pancreatic cancer (IVIS luciferase activity, survival); assay type: in vivo, BALB/c nu/nu mice; details: PANC-1-luc model, lipoplex i.p. 20 μg TS-shRNA/mouse, Paclitaxel i.p. 10 mg/kg, days 8, 11, 14, 17, IVIS days 7-25
Procedure: The therapeutic effects of the TS-shRNA-carrying lipoplex (i.e., novel preparation (2)) prepared in the same manner as in Example 1 on peritoneal dissemination of pancreatic cancer were evaluated.
Luciferase-expressing human pancreatic cancer cells PANC-1 (PANC-1-luc, Pharmaron) were cultured and transplanted intraperitoneally into BALB/c nu/nu mice (6- to 8-week-old, female, Beijing HFK Bio-Technology Co., Ltd.) at 1.0×10^7 cells/mouse to prepare mouse models for peritoneal dissemination of PANC-1-luc.
In Example 7, the lipoplex (novel preparation (2)), Paclitaxel (Taxol, Pharmaron), or the lipoplex (novel preparation (2)) in combination with Paclitaxel was administered to different mouse models. A 9% sucrose solution was administered to the control group.
The lipoplex (novel preparation (2)) was administered intraperitoneally to mouse models in such a manner that 20 μg of TS-shRNA would be administered to each mouse per day, and such administration was carried out four times in total (i.e., 8, 11, 14, and 17 days after the cell transplantation). Paclitaxel was administered intraperitoneally to the relevant group of mouse models four times in total (i.e., 8, 11, 14, and 17 days after the cell transplantation) at 10 mg/kg. […]

[2] = TS-shRNA concentration in ascites and blood by RT-PCR after intraperitoneal lipoplex administration; assay type: in vivo, BALB/c nu/nu mice; details: after i.p. administration of lipoplex (novel preparation (2)), ovarian cancer peritoneal metastasis mouse model

Compound	increase in luciferase activity (tumor growth in the abdominal cavity) compared with the control group [1]	half-life of TS-shRNA in the ascites [2]	leakage of TS-shRNA into the blood [2]
CC(=O)O[C@H]1C(=O)[C@@]2(C)[C@H]([C@H](OC(=O)c3ccccc3)[C@]3(O)C[C@H](OC(=O)[C@H](O)[C@@H](NC(=O)c4ccccc4)c4ccccc4)C(C)=C1C3(C)C)[C@]1(OC(C)=O)CO[C@@H]1C[C@@H]2O [Paclitaxel]	suppressed; also recorded: strong tumor suppression effects	–	–
TS-shRNA: TS-targeting shRNA, SEQ ID NO: 8, 5′-GUAACACCAUCGAUCAUGAUAGUGCUCCUGGUUGUCAUGAUCGAUGGUGUUACUU-3′ (shRNA hairpin in lipoplex, chemistry not given here)	–	approximately 8 hours	had not leaked
